# Target: T1, human TRPM8 (Homo sapiens, UniProt Q7Z2W7)
# T1 construct: expressed in transfected cells; host or cells: Chinese hamster ovary (CHO) cells, T-REx tetracycline-inducible expression system (Invitrogen); co-transfected with pcDNA3.1 aequorin
# Assay: Luminescence readout assay for measuring intracellular calcium (aequorin, CHO cells expressing human TRPM8; icilin, L-menthol or cold activation)
# Format: cell-based
# Details: CHO cells expressing human TRPM8, icilin activation (1 μM), aequorin luminescence; read-out: hTRPM8 IC50
# Summary of the method: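 Activation was by 1 μM icilin, 100 μM L-menthol (test compound 2.5 min ahead) or cold buffer below 10° C (compound 1 min ahead). Calcium rise measured as aequorin luminescence in CHO cells with tetracycline-inducible human TRPM8.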
# T1 sequence (Q7Z2W7 whole entry): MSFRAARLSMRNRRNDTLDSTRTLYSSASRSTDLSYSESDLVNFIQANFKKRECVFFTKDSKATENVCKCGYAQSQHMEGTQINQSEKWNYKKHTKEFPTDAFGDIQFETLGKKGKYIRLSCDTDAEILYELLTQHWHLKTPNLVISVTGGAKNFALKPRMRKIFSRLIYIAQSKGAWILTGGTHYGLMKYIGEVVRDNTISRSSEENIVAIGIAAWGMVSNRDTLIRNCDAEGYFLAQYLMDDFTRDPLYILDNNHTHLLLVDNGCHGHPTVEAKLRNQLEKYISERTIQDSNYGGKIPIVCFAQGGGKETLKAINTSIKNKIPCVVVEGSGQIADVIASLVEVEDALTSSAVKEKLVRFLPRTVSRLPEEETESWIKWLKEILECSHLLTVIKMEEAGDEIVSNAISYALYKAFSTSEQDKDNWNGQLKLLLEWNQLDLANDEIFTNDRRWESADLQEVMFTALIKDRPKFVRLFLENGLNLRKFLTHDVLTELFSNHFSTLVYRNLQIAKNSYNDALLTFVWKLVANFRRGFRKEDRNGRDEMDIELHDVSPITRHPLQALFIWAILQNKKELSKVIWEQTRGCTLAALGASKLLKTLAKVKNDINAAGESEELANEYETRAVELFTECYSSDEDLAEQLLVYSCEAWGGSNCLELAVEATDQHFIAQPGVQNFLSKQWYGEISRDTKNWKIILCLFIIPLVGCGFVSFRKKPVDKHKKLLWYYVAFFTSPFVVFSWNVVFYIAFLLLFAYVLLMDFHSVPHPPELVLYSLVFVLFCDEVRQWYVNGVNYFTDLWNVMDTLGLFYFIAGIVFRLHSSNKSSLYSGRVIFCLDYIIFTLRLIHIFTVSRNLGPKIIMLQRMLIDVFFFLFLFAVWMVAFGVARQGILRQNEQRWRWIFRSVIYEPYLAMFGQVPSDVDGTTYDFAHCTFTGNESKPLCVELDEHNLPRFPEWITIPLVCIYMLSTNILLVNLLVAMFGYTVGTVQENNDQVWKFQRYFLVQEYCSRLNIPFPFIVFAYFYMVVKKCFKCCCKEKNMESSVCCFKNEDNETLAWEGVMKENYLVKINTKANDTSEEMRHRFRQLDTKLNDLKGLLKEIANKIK
row,SMILES,IC50
1,"CC1(C)COC(c2ccc(C(=O)N[C@]3(c4ccc(OC(F)(F)F)c(F)c4)CCOc4cccnc43)cc2)=N1 [Example 168, (S)-4-(4,4-dimethyl-4,5-dihydrooxazol-2-yl)-N-(4-(3-fluoro-4-(trifluoromethoxy)phenyl)-3,4-dihydro-2H-pyrano[3,2-b]pyridin-4-yl)benzamide]",146 nM
2,"CCOC(=O)c1ccc(C(=O)N[C@]2(c3ccc(OC(F)(F)F)c(F)c3)CCOc3cccnc32)nc1C [Example 169, (S)-ethyl 6-((4-(3-fluoro-4-(trifluoromethoxy)phenyl)-3,4-dihydro-2H-pyrano[3,2-b]pyridin-4-yl)carbamoyl)-2-methylnicotinate]",32 nM
3,"N#Cc1ccc(C(=O)N[C@]2(c3ccc(OC(F)(F)F)c(F)c3)CCOc3cccnc32)nc1 [Example 171, (S)-5-cyano-N-(4-(3-fluoro-4-(trifluoromethoxy)phenyl)-3,4-dihydro-2H-pyrano[3,2-b]pyridin-4-yl) picolinamide]",12 nM
4,"COC(=O)c1ccc(C(=O)N[C@]2(c3ccc(C(F)(F)F)c(F)c3)CCOc3cccnc32)nc1 [Example 172, (S)-methyl 6-((4-(3-fluoro-4-(trifluoromethyl)phenyl)-3,4-dihydro-2H-pyrano[3,2-b]pyridin-4-yl)carbamoyl) nicotinate]",22 nM
5,"O=C(N[C@]1(c2ccc(OC(F)(F)F)cc2F)CCOc2cccnc21)c1ccc(=O)[nH]c1 [Example 173, (S)-N-(4-(2-fluoro-4-(trifluoromethoxy)phenyl)-3,4-dihydro-2H-pyrano[3,2-b]pyridin-4-yl)-6-oxo-1,6-dihydropyridine-3-carboxamide]",475 nM
6,"COC(=O)c1ccc(C(=O)N[C@]2(c3ccc(OC(F)(F)F)cc3F)CCOc3cccnc32)nc1 [Example 174, (S)-methyl 6-((4-(2-fluoro-4-(trifluoromethoxy)phenyl)-3,4-dihydro-2H-pyrano[3,2-b]pyridin-4-yl)carbamoyl) nicotinate]",128 nM
7,"COC(=O)c1ccc(C(=O)N[C@]2(c3ccc(C(F)(F)F)cc3)CCOc3cccnc32)nc1 [Example 175, (S)-methyl 6-((4-(4-(trifluoromethyl)phenyl)-3,4-dihydro-2H-pyrano[3,2-b]pyridin-4-yl)carbamoyl) nicotinate]",43 nM
8,"COC(=O)c1ccc(C(=O)N[C@]2(c3ccc(OC(F)(F)F)cc3)CCOc3cccnc32)nc1 [Example 176, (S)-methyl 6-((4-(4-(trifluoromethoxy)phenyl)-3,4-dihydro-2H-pyrano[3,2-b]pyridin-4-yl)carbamoyl) nicotinate]",54 nM
9,"O=C(O)c1cnc(C(=O)N[C@]2(c3ccc(OC(F)(F)F)c(F)c3)CCOc3cccnc32)cn1 [Example 177, (S)-5-((4-(3-fluoro-4-(trifluoromethoxy)phenyl)-3,4-dihydro-2H-pyrano[3,2-b]pyridin-4-yl)carbamoyl) pyrazine-2-carboxylic acid]",209 nM
10,"O=C(O)c1cccc(C(=O)N[C@]2(c3ccc(OC(F)(F)F)c(F)c3)CCOc3cccnc32)c1 [Example 178, (S)-3-((4-(3-fluoro-4-(trifluoromethoxy)phenyl)-3,4-dihydro-2H-pyrano[3,2-b]pyridin-4-yl)carbamoyl) benzoic acid]",72 nM
11,"Cn1cnc(C(=O)N[C@]2(c3ccc(OC(F)(F)F)c(F)c3)CCOc3cccnc32)c1 [Example 179, (S)-N-(4-(3-fluoro-4-(trifluoromethoxy)phenyl)-3,4-dihydro-2H-pyrano[3,2-b]pyridin-4-yl)-1-methyl-1H-imidazole-4-carboxamide]",305 nM
12,"Cn1c(C(=O)N[C@]2(c3ccc(OC(F)(F)F)c(F)c3)CCOc3cccnc32)cnc1Br [Example 180, (S)-2-bromo-N-(4-(3-fluoro-4-(trifluoromethoxy)phenyl)-3,4-dihydro-2H-pyrano[3,2-b]pyridin-4-yl)-1-methyl-1H-imidazole-5-carboxamide]",32 nM
13,"COC(=O)c1c(C)cc(C(=O)N[C@]2(c3ccc(OC(F)(F)F)c(F)c3)CCOc3cccnc32)cc1C [Example 181, (S)-methyl 4-((4-(3-fluoro-4-(trifluoromethoxy)phenyl)-3,4-dihydro-2H-pyrano[3,2-b]pyridin-4-yl)carbamoyl)-2,6-dimethylbenzoate]",14 nM
14,"COC(=O)c1cc(C(=O)N[C@]2(c3ccc(OC(F)(F)F)c(F)c3)CCOc3cccnc32)ccc1OC [Example 182, (S)-methyl 5-((4-(3-fluoro-4-(trifluoromethoxy)phenyl)-3,4-dihydro-2H-pyrano[3,2-b]pyridin-4-yl)carbamoyl)-2-methoxybenzoate]",36 nM
15,"COC(=O)c1ccc(C(=O)N[C@]2(c3ccc(Cl)c(Cl)c3)CCOc3cccnc32)nc1 [Example 183, (S)-methyl 6-((4-(3,4-dichlorophenyl)-3,4-dihydro-2H-pyrano[3,2-b]pyridin-4-yl)carbamoyl) nicotinate]",21 nM
16,"NS(=O)(=O)c1ccc(C(=O)N[C@]2(c3ccc(OC(F)(F)F)c(F)c3)CCOc3cccnc32)cc1 [Example 184, (S)-N-(4-(3-fluoro-4-(trifluoromethoxy)phenyl)-3,4-dihydro-2H-pyrano[3,2-b]pyridin-4-yl)-sulfamoylbenzamide]",50 nM
17,"O=C(N[C@]1(c2ccc(F)c(C(F)(F)F)c2)CCOc2cccnc21)c1ccc(=O)[nH]c1 [Example 185, (S)-N-(4-(4-fluoro-3-(trifluoromethyl)phenyl)-3,4-dihydro-2H-pyrano[3,2-b]pyridin-4-yl)-6-oxo-1,6-dihydropyridine-3-carboxamide]",89 nM
18,"COc1c(C(=O)O)cccc1C(=O)N[C@]1(c2ccc(OC(F)(F)F)c(F)c2)CCOc2cccnc21 [Example 186, (S)-3-((4-(3-fluoro-4-(trifluoromethoxy)phenyl)-3,4-dihydro-2H-pyrano[3,2-b]pyridin-4-yl)carbamoyl)-2-methoxybenzoic acid]",66 nM
19,"CCOC(=O)c1cc(C(=O)N[C@]2(c3ccc(OC(F)(F)F)c(F)c3)CCOc3cccnc32)c[nH]1 [Example 187, (S)-ethyl 4-((4-(3-fluoro-4-(trifluoromethoxy)phenyl)-3,4-dihydro-2H-pyrano[3,2-b]pyridin-4-yl)carbamoyl)-1H-pyrrole-2-carboxylate]",54 nM
20,"COC(=O)c1ccc(C(=O)N[C@]2(c3ccc(OC(F)(F)F)c(F)c3)CCOc3cccnc32)cc1N [Example 188, (S)-methyl 2-amino-4-((4-(3-fluoro-4-(trifluoromethoxy)phenyl)-3,4-dihydro-2H-pyrano[3,2-b]pyridin-4-yl)carbamoyl) benzoate]",15 nM
21,"O=C(N[C@]1(c2ccc(OC(F)(F)F)c(F)c2)CCOc2cccnc21)c1ncco1 [Example 189, (S)-N-(4-(3-fluoro-4-(trifluoromethoxy)phenyl)-3,4-dihydro-2H-pyrano[3,2-b]pyridin-4-yl) oxazole-2-carboxamide]",134 nM
22,"O=C(N[C@]1(c2ccc(OC(F)(F)F)c(F)c2)CCOc2cccnc21)c1cnsc1 [Example 190, (S)-N-(4-(3-fluoro-4-(trifluoromethoxy)phenyl)-3,4-dihydro-2H-pyrano[3,2-b]pyridin-4-yl) isothiazole-4-carboxamide]",152 nM
23,"CCc1cc(C(=O)N[C@]2(c3ccc(OC(F)(F)F)c(F)c3)CCOc3cccnc32)ccc1C(=O)OC [Example 191, (S)-methyl 2-ethyl-4-((4-(3-fluoro-4-(trifluoromethoxy)phenyl)-3,4-dihydro-2H-pyrano[3,2-b]pyridin-4-yl)carbamoyl) benzoate]",11 nM
24,"CCOC(=O)c1cc(C(=O)N[C@]2(c3ccc(OC(F)(F)F)c(F)c3)CCOc3cccnc32)cc(C(=O)OCC)c1 [Example 192, (S)-diethyl 5-((4-(3-fluoro-4-(trifluoromethoxy)phenyl)-3,4-dihydro-2H-pyrano[3,2-b]pyridin-4-yl)carbamoyl) isophthalate]",94 nM
25,"COC(=O)c1ccn(CC(=O)N[C@]2(c3ccc(OC(F)(F)F)c(F)c3)CCOc3cccnc32)c1 [Example 193, (S)-melhyl 1-(2-((4-(3-fluoro-4-(trifluoromethoxy)phenyl)-3,4-dihydro-2H-pyrano[3,2-b]pyridin-4-yl)amino)-2-oxoethyl)-1H-pyrrole-3-carboxylate]",584 nM
26,"O=C(N[C@]1(c2ccc(Cl)c(Cl)c2)CCOc2cccnc21)c1ccc(=O)[nH]c1 [Example 194, (S)-N-(4-(3,4-dichlorophenyl)-3,4-dihydro-2H-pyrano[3,2-b]pyridin-4-yl)-6-oxo-1,6-dihydropyridine-3-carboxamide]",44 nM
27,"NC(=O)c1ccc(C(=O)N[C@]2(c3ccc(OC(F)(F)F)c(F)c3)CCOc3cccnc32)cc1 [Example 195, (S)-N1-(4-(3-fluoro-4-(trifluoromethoxy)phenyl)-3,4-dihydro-2H-pyrano[3,2-b]pyridin-4-yl) terephthalamide 2,2,2-trifluoroacetate]",6 nM
28,"COC(=O)c1cc2ccc(C(=O)N[C@]3(c4ccc(OC(F)(F)F)c(F)c4)CCOc4cccnc43)cc2n1C [Example 196, (S)-methyl 6-((4-(3-fluoro-4-(trifluoromethoxy)phenyl)-3,4-dihydro-2H-pyrano[3,2-b]pyridin-4-yl)carbamoyl)-1-methyl-1H-indole-2-carboxylate]",7 nM
29,"O=C(N[C@]1(c2ccc(OC(F)(F)F)c(F)c2)CCOc2cccnc21)c1ccc(C(=O)O)c(Cl)c1 [Example 197, (S)-2-chloro-4-((4-(3-fluoro-4-(trifluoromethoxy)phenyl)-3,4-dihydro-2H-pyrano[3,2-b]pyridin-4-yl)carbamoyl) benzoic acid 2,2,2-trifluoroacetate]",92 nM
30,"O=C(N[C@]1(c2ccc(OC(F)(F)F)c(F)c2)CCOc2cccnc21)c1cscn1 [Example 198, (S)-N-(4-(3-fluoro-4-(trifluoromethoxy)phenyl)-3,4-dihydro-2H-pyrano[3,2-b]pyridin-4-yl) thiazole-4-carboxamide]",35 nM

# — patent US20150031668A1, “CHROMAN DERIVATIVES AS TRPM8 INHIBITORS” (AMGEN INC., priority 2013, published 2015)
